Assay results from patent US8802597B2, “Herbicidal pyrimidines” (E I du Pont de Nemours and Company, priority 2003, dated 2014).

Legend:
Assay in all cases: Test E flooded paddy water application
Type in all cases: in vivo
[1] = test system: barnyardgrass (Echinochloa crus-galli); settings: Flood, 21 days, scale 0 to 100 (0 no effect, 100 complete control); for Plant response rating, Barnyardgrass: 16 g ai/ha
Method in brief: (§1)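 Greenhouse pots of Tama silt loam with weeds and rice at 2.0–2.5-leaf stage, flooded to 3 cm; compounds applied directly into paddy water, depth maintained. Visual rating versus untreated controls after 21 days, 0 (no effect) to 100 (complete control); 29.5/26.7 °C, 16-h photoperiod.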

[2] = test system: bearded (brdd.) sprangletop (Leptochloa fusca ssp. fascicularis); settings: Flood, 21 days, scale 0 to 100 (0 no effect, 100 complete control)
Method in brief: as §1

[3] = test system: ducksalad (Heteranthera limosa); settings: Flood, 21 days, scale 0 to 100 (0 no effect, 100 complete control); for Plant response rating, Ducksalad: 16 g ai/ha
Method in brief: as §1

[4] = test system: early watergrass (Echinochloa oryzoides); settings: Flood, 21 days, scale 0 to 100 (0 no effect, 100 complete control)
Method in brief: as §1

[5] = test system: junglerice (Echinochloa colona); settings: Flood, 21 days, scale 0 to 100 (0 no effect, 100 complete control)
Method in brief: as §1

[6] = test system: late watergrass (Echinochloa oryzicola); settings: Flood, 21 days, scale 0 to 100 (0 no effect, 100 complete control)
Method in brief: as §1

[7] = test system: purple redstem (Ammannia coccinea); settings: Flood, 21 days, scale 0 to 100 (0 no effect, 100 complete control)
Method in brief: as §1

[8] = test system: rice flatsedge (Cyperus iria); settings: Flood, 21 days, scale 0 to 100 (0 no effect, 100 complete control)
Method in brief: as §1

[9] = test system: smallflower umbrella sedge (Cyperus difformis); settings: Flood, 21 days, scale 0 to 100 (0 no effect, 100 complete control)
Method in brief: as §1

[10] = test system: transplanted rice seedlings (Oryza sativa cv. ‘Japonica-M202’); settings: Flood, 21 days, scale 0 to 100 (0 no effect, 100 complete control)
Method in brief: as §1

[11] = test system: water seeded rice seedlings (Oryza sativa cv. ‘Japonica-M202’); settings: Flood, 21 days, scale 0 to 100 (0 no effect, 100 complete control)
Method in brief: as §1

CCOC(=O)c1nc(-c2ccc(I)cc2)nc(N)c1Cl [Compound 133]
85: Redstem plant response rating ([7]; 250 g ai/ha)
0: Barnyardgrass plant response rating ([1]; 32 g ai/ha) | Barnyardgrass plant response rating ([1]; 64 g ai/ha) | Barnyardgrass plant response rating ([1]; 125 g ai/ha) | Barnyardgrass plant response rating ([1]; 250 g ai/ha) | Plant response rating, Barnyardgrass [1] | Sprangletop, Brdd. plant response rating ([2]; 64 g ai/ha) | Sprangletop, Brdd. plant response rating ([2]; 125 g ai/ha) | Sprangletop, Brdd. plant response rating ([2]; 250 g ai/ha) | Plant response rating, Sprangletop, Brdd. ([2]; 16 g ai/ha) | Plant response rating, Sprangletop, Brdd. ([2]; 32 g ai/ha) | Watergrass, Early plant response rating ([4]; 64 g ai/ha) | Watergrass, Early plant response rating ([4]; 125 g ai/ha) | Watergrass, Early plant response rating ([4]; 250 g ai/ha) | Plant response rating, Watergrass, Early ([4]; 16 g ai/ha) | Plant response rating, Watergrass, Early ([4]; 32 g ai/ha) | Junglerice plant response rating ([5]; 64 g ai/ha) | Junglerice plant response rating ([5]; 125 g ai/ha) | Junglerice plant response rating ([5]; 250 g ai/ha) | Plant response rating, Junglerice ([5]; 16 g ai/ha) | Plant response rating, Junglerice ([5]; 32 g ai/ha) | Watergrass, Late plant response rating ([6]; 64 g ai/ha) | Watergrass, Late plant response rating ([6]; 125 g ai/ha) | Watergrass, Late plant response rating ([6]; 250 g ai/ha) | Plant response rating, Watergrass, Late ([6]; 16 g ai/ha) | Plant response rating, Watergrass, Late ([6]; 32 g ai/ha) | Plant response rating, Redstem ([7]; 16 g ai/ha) | Plant response rating, Sedge, Umbrella ([9]; 16 g ai/ha) | Plant response rating, Sedge, Umbrella ([9]; 32 g ai/ha) | Rice, Transplanted plant response rating ([10]; 64 g ai/ha) | Rice, Transplanted plant response rating ([10]; 125 g ai/ha) | Rice, Transplanted plant response rating ([10]; 250 g ai/ha) | Plant response rating, Rice, Transplanted ([10]; 16 g ai/ha) | Plant response rating, Rice, Transplanted ([10]; 32 g ai/ha) | Rice, Water Seeded plant response rating ([11]; 64 g ai/ha) | Rice, Water Seeded plant response rating ([11]; 125 g ai/ha) | Plant response rating, Rice, Water Seeded ([11]; 16 g ai/ha) | Plant response rating, Rice, Water Seeded ([11]; 32 g ai/ha)
30: Plant response rating, Flatsedge, Rice ([8]; 16 g ai/ha)
100: Ducksalad plant response rating ([3]; 32 g ai/ha) | Ducksalad plant response rating ([3]; 64 g ai/ha) | Ducksalad plant response rating ([3]; 125 g ai/ha) | Ducksalad plant response rating ([3]; 250 g ai/ha) | Plant response rating, Ducksalad [3] | Flatsedge, Rice plant response rating ([8]; 250 g ai/ha) | Sedge, Umbrella plant response rating ([9]; 125 g ai/ha) | Sedge, Umbrella plant response rating ([9]; 250 g ai/ha)
35: Rice, Water Seeded plant response rating ([11]; 250 g ai/ha)
75: Redstem plant response rating ([7]; 125 g ai/ha)
95: Flatsedge, Rice plant response rating ([8]; 64 g ai/ha) | Flatsedge, Rice plant response rating ([8]; 125 g ai/ha) | Sedge, Umbrella plant response rating ([9]; 64 g ai/ha)
20: Plant response rating, Redstem ([7]; 32 g ai/ha)
65: Redstem plant response rating ([7]; 64 g ai/ha) | Plant response rating, Flatsedge, Rice ([8]; 32 g ai/ha)

Nc1nc(-c2ccc(Cl)cc2)nc(C(=O)O)c1Br [Compound 88]
50: Watergrass, Early plant response rating ([4]; 250 g ai/ha) | Plant response rating, Flatsedge, Rice ([8]; 16 g ai/ha)
0: Barnyardgrass plant response rating ([1]; 32 g ai/ha) | Barnyardgrass plant response rating ([1]; 64 g ai/ha) | Barnyardgrass plant response rating ([1]; 125 g ai/ha) | Barnyardgrass plant response rating ([1]; 250 g ai/ha) | Plant response rating, Barnyardgrass [1] | Sprangletop, Brdd. plant response rating ([2]; 32 g ai/ha) | Sprangletop, Brdd. plant response rating ([2]; 64 g ai/ha) | Plant response rating, Sprangletop, Brdd. ([2]; 16 g ai/ha) | Watergrass, Early plant response rating ([4]; 32 g ai/ha) | Watergrass, Early plant response rating ([4]; 64 g ai/ha) | Watergrass, Early plant response rating ([4]; 125 g ai/ha) | Plant response rating, Watergrass, Early ([4]; 16 g ai/ha) | Junglerice plant response rating ([5]; 32 g ai/ha) | Junglerice plant response rating ([5]; 64 g ai/ha) | Junglerice plant response rating ([5]; 125 g ai/ha) | Plant response rating, Junglerice ([5]; 16 g ai/ha) | Watergrass, Late plant response rating ([6]; 32 g ai/ha) | Watergrass, Late plant response rating ([6]; 64 g ai/ha) | Watergrass, Late plant response rating ([6]; 125 g ai/ha) | Watergrass, Late plant response rating ([6]; 250 g ai/ha) | Plant response rating, Watergrass, Late ([6]; 16 g ai/ha) | Redstem plant response rating ([7]; 32 g ai/ha) | Redstem plant response rating ([7]; 64 g ai/ha) | Redstem plant response rating ([7]; 125 g ai/ha) | Plant response rating, Redstem ([7]; 16 g ai/ha) | Rice, Transplanted plant response rating ([10]; 32 g ai/ha) | Rice, Transplanted plant response rating ([10]; 64 g ai/ha) | Rice, Transplanted plant response rating ([10]; 125 g ai/ha) | Rice, Transplanted plant response rating ([10]; 250 g ai/ha) | Plant response rating, Rice, Transplanted ([10]; 16 g ai/ha) | Rice, Water Seeded plant response rating ([11]; 32 g ai/ha) | Rice, Water Seeded plant response rating ([11]; 64 g ai/ha) | Rice, Water Seeded plant response rating ([11]; 125 g ai/ha) | Rice, Water Seeded plant response rating ([11]; 250 g ai/ha) | Plant response rating, Rice, Water Seeded ([11]; 16 g ai/ha)
40: Sedge, Umbrella plant response rating ([9]; 32 g ai/ha) | Plant response rating, Sedge, Umbrella ([9]; 16 g ai/ha)
90: Junglerice plant response rating ([5]; 250 g ai/ha)
100: Ducksalad plant response rating ([3]; 32 g ai/ha) | Ducksalad plant response rating ([3]; 64 g ai/ha) | Ducksalad plant response rating ([3]; 125 g ai/ha) | Ducksalad plant response rating ([3]; 250 g ai/ha) | Flatsedge, Rice plant response rating ([8]; 64 g ai/ha) | Flatsedge, Rice plant response rating ([8]; 125 g ai/ha) | Flatsedge, Rice plant response rating ([8]; 250 g ai/ha)
95: Sprangletop, Brdd. plant response rating ([2]; 250 g ai/ha) | Plant response rating, Ducksalad [3] | Sedge, Umbrella plant response rating ([9]; 250 g ai/ha)
65: Redstem plant response rating ([7]; 250 g ai/ha)
85: Sprangletop, Brdd. plant response rating ([2]; 125 g ai/ha) | Flatsedge, Rice plant response rating ([8]; 32 g ai/ha) | Sedge, Umbrella plant response rating ([9]; 125 g ai/ha)

COC(=O)c1nc(-c2ccc(C(F)(F)F)cc2)nc(N)c1Cl [Compound 44]
75: Redstem plant response rating ([7]; 500 g ai/ha)
90: Sedge, Umbrella plant response rating ([9]; 64 g ai/ha) | Sedge, Umbrella plant response rating ([9]; 125 g ai/ha)
100: Ducksalad plant response rating ([3]; 32 g ai/ha) | Ducksalad plant response rating ([3]; 64 g ai/ha) | Ducksalad plant response rating ([3]; 125 g ai/ha) | Ducksalad plant response rating ([3]; 250 g ai/ha) | Ducksalad plant response rating ([3]; 500 g ai/ha) | Sedge, Umbrella plant response rating ([9]; 250 g ai/ha) | Sedge, Umbrella plant response rating ([9]; 500 g ai/ha)
95: Sprangletop, Brdd. plant response rating ([2]; 500 g ai/ha)
50: Sprangletop, Brdd. plant response rating ([2]; 250 g ai/ha) | Redstem plant response rating ([7]; 250 g ai/ha)
30: Sprangletop, Brdd. plant response rating ([2]; 64 g ai/ha) | Sprangletop, Brdd. plant response rating ([2]; 125 g ai/ha)
10: Barnyardgrass plant response rating ([1]; 500 g ai/ha) | Redstem plant response rating ([7]; 64 g ai/ha)
20: Sprangletop, Brdd. plant response rating ([2]; 32 g ai/ha) | Junglerice plant response rating ([5]; 250 g ai/ha) | Junglerice plant response rating ([5]; 500 g ai/ha) | Watergrass, Late plant response rating ([6]; 500 g ai/ha) | Redstem plant response rating ([7]; 125 g ai/ha) | Sedge, Umbrella plant response rating ([9]; 32 g ai/ha) | Rice, Water Seeded plant response rating ([11]; 500 g ai/ha)
0: Barnyardgrass plant response rating ([1]; 32 g ai/ha) | Barnyardgrass plant response rating ([1]; 64 g ai/ha) | Barnyardgrass plant response rating ([1]; 125 g ai/ha) | Barnyardgrass plant response rating ([1]; 250 g ai/ha) | Watergrass, Early plant response rating ([4]; 32 g ai/ha) | Watergrass, Early plant response rating ([4]; 64 g ai/ha) | Watergrass, Early plant response rating ([4]; 125 g ai/ha) | Watergrass, Early plant response rating ([4]; 250 g ai/ha) | Watergrass, Early plant response rating ([4]; 500 g ai/ha) | Junglerice plant response rating ([5]; 32 g ai/ha) | Junglerice plant response rating ([5]; 64 g ai/ha) | Junglerice plant response rating ([5]; 125 g ai/ha) | Watergrass, Late plant response rating ([6]; 32 g ai/ha) | Watergrass, Late plant response rating ([6]; 64 g ai/ha) | Watergrass, Late plant response rating ([6]; 125 g ai/ha) | Watergrass, Late plant response rating ([6]; 250 g ai/ha) | Redstem plant response rating ([7]; 32 g ai/ha) | Rice, Transplanted plant response rating ([10]; 32 g ai/ha) | Rice, Transplanted plant response rating ([10]; 64 g ai/ha) | Rice, Transplanted plant response rating ([10]; 125 g ai/ha) | Rice, Transplanted plant response rating ([10]; 250 g ai/ha) | Rice, Transplanted plant response rating ([10]; 500 g ai/ha) | Rice, Water Seeded plant response rating ([11]; 32 g ai/ha) | Rice, Water Seeded plant response rating ([11]; 64 g ai/ha) | Rice, Water Seeded plant response rating ([11]; 125 g ai/ha) | Rice, Water Seeded plant response rating ([11]; 250 g ai/ha)
